# Test results as given in patent publication US20050100891A1, “Gene expression profile for KSHV infection and methods for treating same” (priority 2000, published 2005).
# “Also recorded” adds a separate entry of the source.
# Experiments:
# ORF 65 (lytic gene) = assay: RT-PCR of late (lytic) gene ORF 65 in PMA-induced KSHV-infected DMVEC; assay type: cell-based; conditions: for late gene (ORF 65) expression: compound 1 hour before PMA, 48 hours, concentration not given
# Protocol: (§1) KSHV genes ORF 64 and K12 (kaposin) were used as reverse transcriptase PCR (RT-PCR) templates as described previously^(43). ORF 65 sequences were amplified with primers 5-[…] (SEQ ID NO: 5) and 5′-[…] (SEQ ID NO: 6). Cellular genes (HPRT, GAPDH, or -actin) were amplified from each sample as a control for cDNA synthesis. PCR products were visualized following electrophoresis on agarose-ethidium bromide gels.
# (§2) Cells were treated with inhibitory compounds or peptides for one hour and lytic replication was induced by PMA treatment for 48 hours. Ganciclovir was used as control compound for inhibition of KSHV-replication and late gene expression^(10). After 48 hours, cells were harvested and expression of the latent gene K12 as well as the late gene ORF 65 was analyzed by RT-PCR. For control, expression of cellular genes α-actin or HPRT was monitored. […] However, both Ht31 and Haloperidol inhibited late gene expression, but not latent gene expression. Since both inhibitors potentially interfere with PKC signaling, we examined whether Ht31 or Haloperidol would inhibit the PMA-mediated induction of immediate early genes. […] In addition, the peptide Ht-31 inhibits the association between A kinase anchoring proteins (AKAPs) and PKA (21, 64). […] Therefore we conclude that the signal transduction pathways regulated by the type I sigma receptor and AKAPs are required for lytic progression of KSHV.
# There is no specific inhibitor of Gravin identified, however the Ht-31 peptide derived from the PKA R-II binding domain of the human thyroid AKAP inhibits the AKAP/PKA interactions in vivo and in vitro ^(21, 64). A stearated version of this peptide is membrane permeable and can block the AKAP/PKA interaction in tissue culture. A requirement for PKA signaling can be inferred from the up-regulation of Gravin, and to further investigate the requirement for the AKAP/PKA interaction for KSHV late gene expression, infected and uninfected cells were treated with stearated Ht-31 at two concentrations (FIG. 7B). […] A stearated control peptide that is unable to interact with PKA, Ht-31P, had no effect on late gene expression (FIG. 7B, lanes 4-5). […] It is not possible to conclude whether the inhibitory effect of Ht-3 1 occurs through Gravin or any other AKAP, since Ht-31 inhibits a wide range of AKAP/PKA interactions.
# (§3) The type I Sigma receptor is antagonized by the antipsychotic drug Haloperidol^(66). To investigate the requirement of Sigma receptor function for late gene expression, cells were treated with 5 μM Haloperidol for 1 hour prior to PMA addition. […] The inhibition of late gene expression was more complete with Haloperidol than with Ganciclovir (FIG. 7D, lanes 5-6). In contrast, the purine […] phosphorylase inhibitor 8-aminoguanosine (8-AMG) had no effect on viral gene expression (FIG. 7D, lane 4).
# K12 (latent gene) = assay: RT-PCR of latent gene K12 in PMA-induced KSHV-infected DMVEC; assay type: cell-based
# Protocol: as §1, §2, §3
# immediate early gene K3 = assay: PMA-mediated induction of immediate early gene K3; assay type: cell-based, KSHV
# Epstein-Barr Virus (EBV) = conditions: cited from earlier work
# Uninfected DMVEC = tested on: Uninfected DMVEC
# Protocol: (§4) To promote a transformed phenotype, KSHV-infected DMVEC were cultured post-confluency in 35 mm Primaria culture dishes. […] Cells were examined daily for evidence of phenotypic change using a phase-contrast microscope and results recorded photographically.
# (§5) To directly test whether KSHV-induction of c-Kit is necessary for virus-induced transformation, the consequence of inhibiting c-Kit signaling in KSHV-transformed DMVEC was evaluated.
# SCLC cell lines = conditions: via inhibition of c-Kit activity; cited from earlier work
# KSHV-infected DMVEC [1] = assay: Transformation assay (focus formation, disorganized growth) in post-confluent culture; assay type: cell-based, human
# Protocol: as §4, §5
# In this approach, a dominant negative c-Kit protein lacking the cytoplasmic ATP-binding and phosphotransferase domains necessary for c-Kit signaling (Ad/c-KitDN) was expressed in KSHV-infected cells using the adenovirus delivery system outlined above.
# KSHV-infected DMVEC [2] = assay: XTT-based proliferation assay, response to exogenous SCF; assay type: cell-based, human
# Protocol: (§6) Proliferation of mock and KSHV-infected DMVEC, and the SCLC line HTB-172, was quantitated using an XTT-based assay. Cells were added to Primaria 96 well trays (Becton-Dickinson) at 1×104 or 5×10^4 cells/well. […] XTT (Roche, Molecular Biochemicals, Indianapolis, Ind.) was added 48 hours later according to the manufacturers instructions. Absorbance was read after 4 to 6 hours on a microplate reader. The HTB-172 line was obtained from the American Type Culture Collection (ATCC, Rockville, Md.).
# Mock- and KSHV-infected DMVEC were cultured in growth factor depleted medium in the absence and presence of recombinant SCF and proliferation was measured using an XTT-based dye reduction assay^(112).
# human Jurkat T cell line = assay: Proliferation of Jurkat T cell line in response to exogenous IL-2; assay type: cell-based
# mock-infected DMVEC = assay: XTT-based proliferation assay, response to exogenous SCF; assay type: cell-based, human
# Protocol: as §6
# To examine whether KSHV-induced up-regulation of c-Kit had functional consequences, we tested whether the mitogenic response of DMVEC to exogenous SCF was enhanced following KSHV infection. Mock- and KSHV-infected DMVEC were cultured in growth factor depleted medium in the absence and presence of recombinant SCF and proliferation was measured using an XTT-based dye reduction assay^(112). […] In mock-infected cultures, the increase over basal proliferation in the […] of recombinant SCF was never more than 40%, while proliferation of KSHV-infected DMVEC was increased by as much as 85%. During KS disease, an enhanced capacity of KSHV-infected endothelial cells to respond to SCF produced by adjacent endothelial cells, or by macrophages and mast cells infiltrating the KS lesion, would promote more rapid growth of virus infected cells.
# [3] = 5 μM Haloperidol for 1 hour prior to PMA addition
molecule,measurement,setting,value
Nc1nc2c(nc(N)n2[C@@H]2O[C@H](CO)[C@@H](O)[C@H]2O)c(=O)[nH]1 [8-aminoguanosine],"viral gene expression (K12, ORF 65)",ORF 65 (lytic gene); 10 μM 8-aminoguanosine,no effect
Nc1nc(O)c2ncn(COC(CO)CO)c2n1 [Ganciclovir],late gene (ORF 65) expression,ORF 65 (lytic gene),inhibited
same,latent gene (K12) expression,"K12 (latent gene); compound 1 hour before PMA, 48 hours, concentration not given",did not interfere
O=C(CCCN1CCC(O)(c2ccc(Cl)cc2)CC1)c1ccc(F)cc1 [Haloperidol],ORF 65 expression,ORF 65 (lytic gene); [3],significantly reduced
same,completeness of inhibition of late gene expression compared with Ganciclovir,ORF 65 (lytic gene); 5 μM Haloperidol vs 25 μM Ganciclovir,more complete
same,late gene (ORF 65) expression,ORF 65 (lytic gene),inhibited
same,expression of the latent K12 gene,K12 (latent gene); [3],did not affect
same,induction of the immediate early gene K3,immediate early gene K3,neither compound prevented induction
same,replication of Epstein-Barr Virus in tissue culture,Epstein-Barr Virus (EBV),inhibit
Cc1ccc(NC(=O)c2ccc(CN3CCN(C)CC3)cc2)cc1Nc1nccc(-c2cccnc2)n1 [STI 571],effect on cell morphology or viability,Uninfected DMVEC,no effect
same,growth of SCLC cell lines in vitro,SCLC cell lines,inhibit
same,non-specific cytotoxicity (trypan blue exclusion),DMVEC,not due to non-specific cytotoxicity
same,focus formation of KSHV-transformed DMVEC,"KSHV-infected DMVEC [1]; STI 571 0.01-10 μM, 5 days, organized monolayer re-established",inhibited
same,drug concentration at which the effect on the transformed phenotype was complete,KSHV-infected DMVEC [1]; dose-dependent,1 µM
same,proliferative response of KSHV-infected DMVEC to exogenous SCF,"KSHV-infected DMVEC [2]; 1 μM dose, SCF 50 ng/ml, XTT assay",completely inhibited
same,effect on capacity to proliferate in response to exogenous IL-2,human Jurkat T cell line,no effect
Ht-31: peptide derived from the PKA R-II binding domain of human thyroid AKAP; inhibits AKAP/PKA interactions (WKNVLQGGESTKERFENSNIGTA),ORF 65 expression,"ORF 65 (lytic gene); 5 μM Ht-31, PMA induction",efficiently repressed
same,ORF 65 expression,"ORF 65 (lytic gene); 25 μM, PMA induction",inhibited; also recorded: efficiently repressed
same,late gene (ORF 65) expression,ORF 65 (lytic gene),inhibited
same,level of K12 RNA,K12 (latent gene); 25 μM,without affecting
same,induction of the immediate early gene K3,immediate early gene K3,neither compound prevented induction
"SCF: recombinant stem cell factor, ligand of c-Kit",SCF concentration of maximal dose-dependent proliferation,KSHV-infected DMVEC [2]; KSHV-infected DMVEC,50 to 100 ng/mL
same,increase over basal proliferation in the absence of recombinant SCF,"KSHV-infected DMVEC [2]; KSHV-infected DMVEC, exogenous SCF 20-100 ng/ml",≤ 85%
same,SCF concentration of maximal dose-dependent proliferation,mock-infected DMVEC; mock-infected DMVEC,50 to 100 ng/mL
same,increase over basal proliferation in the absence of recombinant SCF,"mock-infected DMVEC; mock-infected cultures, exogenous SCF 20-100 ng/ml",≤ 40%
